Values quoted from earlier work in patent publication US12668568B2, “Adamantanyl-substituted benzamide compounds and their use as P2X7 receptor antagonists” (The University of Sydney, priority 2018, dated 2026).

Conditions: literature log D7.4 values; cited from earlier work

Compound	log D7.4 of calibration standards
CC(C)=O [acetone]	−0.24
Nc1ccccc1 [aniline]	0.90
c1ccc(N(c2ccccc2)c2ccccc2)cc1 [triphenylamine]	5.74
